Columns and labels:
Chymotrypsin-C = target: T1, Chymotrypsin-C (Homo sapiens, UniProt Q99895); assay: Compound was tested for inhibition against alpha-chymotrypsin using N-acetyl tyrosine p-nitrophenyl ester; WI=Weak inhibition
T1 sequence (Q99895 whole entry): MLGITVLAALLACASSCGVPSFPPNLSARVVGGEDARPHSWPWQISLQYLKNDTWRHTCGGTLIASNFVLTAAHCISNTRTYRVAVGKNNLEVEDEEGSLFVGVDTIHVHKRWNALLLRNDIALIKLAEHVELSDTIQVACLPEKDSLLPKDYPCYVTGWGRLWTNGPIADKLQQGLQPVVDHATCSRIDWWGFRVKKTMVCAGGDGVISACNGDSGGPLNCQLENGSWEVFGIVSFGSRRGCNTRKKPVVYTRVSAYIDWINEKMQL

[1] = target: T2, Chymotrypsin-C (Homo sapiens) (UniProt Q99895)
T2 sequence (whole entry): T1 sequence (Q99895 whole entry)
Description: Inactivation rate constant (kinact) was determined by exposing Chymotrypsinogen to different concentrations of the purine and periodically diluting aliquots into an assay medium containing one of the chromogenic substrates; NI=No inactivation

[2] = target: T2, Chymotrypsin-C (Homo sapiens); assay: Inactivation efficiency (I/E) was determined by incubating different ratios of pyrone and […] for 18 hr and then assaying the surviving enzyme activity; NI=No inactivation
[3] = target: T2, Chymotrypsin-C (Homo sapiens); remark: listed apart in the source
Description: Inactivation efficiency (I/E) was determined by incubating different ratios of pyrone and chymotrypsin for 18 h and then assaying the surviving Chymotrypsinogen enzyme activity

[4] = target: T2, Chymotrypsin-C (Homo sapiens); assay: Inactivation rate constant (kinact) was determined by exposing chymotrypsin to different concentrations of the […] and periodically diluting aliquots into an assay medium containing one of the […]
[5] = target: T2, Chymotrypsin-C (Homo sapiens); remark: listed apart in the source
Description: Inactivation efficiency (I/E) was determined by incubating different ratios of pyrone and chymotrypsin for 18 hr and then assaying the surviving enzyme activity; NI=No inactivation

Cc1oc(=O)c(Cc2cccc3ccccc23)cc1CCl
Ki (Chymotrypsin-C): Weak inhibition | K inact [1]: No inactivation | I/E [2]: No inactivation

O=c1occ(CCl)cc1Cc1cccc2ccccc12
I/E [3]: 1.38 | Ki (Chymotrypsin-C): Weak inhibition | K inact [4]: 0.085 min⁻¹

O=c1occ(CCl)cc1CCl
I/E [5]: No inactivation | Ki (Chymotrypsin-C): Weak inhibition | K inact [1]: No inactivation
